The text below walks through data of patent US8471005B2 (Cephalon, Inc., priority 2008, dated 2013).

pIC50: −log10 of the molar value. Read-outs that look alike come from different tables or passages of the source. Where only a bound is given, the exact number is not on record here.

The target of one assay is T1, ALK (Homo sapiens, UniProt Q9UM73).
T1 construct: host or cells: baculovirus expression system
Put plainly: ALK Kinase Assay (ELISA/TRF, PLC-γ substrate). The assay is classed as biochemical. To be noted: read-out: ALK Potency. The essentials:
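PLC-γ substrate coated at 10 μg/mL in TBS; reaction started with 30 ng/ml ALK, run 15 min at 37° C. Phosphoproduct detected by TRF with Eu-N1-labeled PT66 anti-phosphotyrosine antibody. IC50 from sigmoidal variable-slope fit of percent inhibition versus log concentration.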

Another assay concerns the target T2, JAK2 (Homo sapiens, UniProt O60674).
T2 construct: host or cells: baculovirus expression system
In words: Recombinant Human JAK2 Kinase Assay (TRF). The assay is classed as biochemical. To be noted: read-out: JAK2 Potency. A digest of the protocol:
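TRF read-out: Eu-N1 PY100 anti-phosphotyrosine antibody detects product. Enzyme is baculovirus-expressed JAK2 at 15 ng/ml; substrate is a biotinyl 15-mer peptide bound to Neutravidin-coated wells. Buffer 20 mM HEPES pH 7.2, 0.2 μM ATP, 1 mM MnCl2, 0.1% BSA, 2.5% DMSO final; 20 min, RT.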

Where [1] appears, read: ALK kinase inhibition, 1 μM ATP.
Setting [2] is: JAK2 kinase inhibition, 0.2 μM ATP.

T2 sequence (O60674 whole entry): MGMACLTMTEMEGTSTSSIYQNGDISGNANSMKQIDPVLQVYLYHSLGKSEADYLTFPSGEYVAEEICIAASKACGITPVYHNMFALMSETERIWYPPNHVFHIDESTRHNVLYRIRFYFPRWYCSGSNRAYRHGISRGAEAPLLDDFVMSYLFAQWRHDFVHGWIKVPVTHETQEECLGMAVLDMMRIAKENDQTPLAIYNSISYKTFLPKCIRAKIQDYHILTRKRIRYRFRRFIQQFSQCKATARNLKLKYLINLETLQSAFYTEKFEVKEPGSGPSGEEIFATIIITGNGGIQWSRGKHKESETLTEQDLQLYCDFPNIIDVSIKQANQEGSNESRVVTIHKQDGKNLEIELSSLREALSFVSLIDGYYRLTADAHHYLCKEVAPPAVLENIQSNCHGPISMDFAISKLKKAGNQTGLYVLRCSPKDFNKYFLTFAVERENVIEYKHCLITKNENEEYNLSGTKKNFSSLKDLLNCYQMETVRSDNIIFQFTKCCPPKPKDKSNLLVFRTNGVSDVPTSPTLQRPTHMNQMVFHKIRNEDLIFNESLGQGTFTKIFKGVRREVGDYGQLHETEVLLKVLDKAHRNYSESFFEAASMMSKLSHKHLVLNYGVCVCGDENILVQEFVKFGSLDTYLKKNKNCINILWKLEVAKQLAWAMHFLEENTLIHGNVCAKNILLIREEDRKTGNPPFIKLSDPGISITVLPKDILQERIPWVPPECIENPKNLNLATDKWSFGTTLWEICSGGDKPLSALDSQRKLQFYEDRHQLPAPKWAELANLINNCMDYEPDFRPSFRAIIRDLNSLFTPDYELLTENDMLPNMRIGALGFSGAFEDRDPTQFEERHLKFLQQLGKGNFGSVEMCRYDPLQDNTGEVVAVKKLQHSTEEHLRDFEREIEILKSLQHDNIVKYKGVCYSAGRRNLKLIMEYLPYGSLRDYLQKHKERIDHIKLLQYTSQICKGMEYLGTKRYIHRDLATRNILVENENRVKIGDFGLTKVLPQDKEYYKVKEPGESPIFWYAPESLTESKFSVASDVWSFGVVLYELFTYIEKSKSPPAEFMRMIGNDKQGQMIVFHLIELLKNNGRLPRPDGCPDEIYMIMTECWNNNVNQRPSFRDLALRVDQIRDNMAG
T1 sequence (Q9UM73 19-1620): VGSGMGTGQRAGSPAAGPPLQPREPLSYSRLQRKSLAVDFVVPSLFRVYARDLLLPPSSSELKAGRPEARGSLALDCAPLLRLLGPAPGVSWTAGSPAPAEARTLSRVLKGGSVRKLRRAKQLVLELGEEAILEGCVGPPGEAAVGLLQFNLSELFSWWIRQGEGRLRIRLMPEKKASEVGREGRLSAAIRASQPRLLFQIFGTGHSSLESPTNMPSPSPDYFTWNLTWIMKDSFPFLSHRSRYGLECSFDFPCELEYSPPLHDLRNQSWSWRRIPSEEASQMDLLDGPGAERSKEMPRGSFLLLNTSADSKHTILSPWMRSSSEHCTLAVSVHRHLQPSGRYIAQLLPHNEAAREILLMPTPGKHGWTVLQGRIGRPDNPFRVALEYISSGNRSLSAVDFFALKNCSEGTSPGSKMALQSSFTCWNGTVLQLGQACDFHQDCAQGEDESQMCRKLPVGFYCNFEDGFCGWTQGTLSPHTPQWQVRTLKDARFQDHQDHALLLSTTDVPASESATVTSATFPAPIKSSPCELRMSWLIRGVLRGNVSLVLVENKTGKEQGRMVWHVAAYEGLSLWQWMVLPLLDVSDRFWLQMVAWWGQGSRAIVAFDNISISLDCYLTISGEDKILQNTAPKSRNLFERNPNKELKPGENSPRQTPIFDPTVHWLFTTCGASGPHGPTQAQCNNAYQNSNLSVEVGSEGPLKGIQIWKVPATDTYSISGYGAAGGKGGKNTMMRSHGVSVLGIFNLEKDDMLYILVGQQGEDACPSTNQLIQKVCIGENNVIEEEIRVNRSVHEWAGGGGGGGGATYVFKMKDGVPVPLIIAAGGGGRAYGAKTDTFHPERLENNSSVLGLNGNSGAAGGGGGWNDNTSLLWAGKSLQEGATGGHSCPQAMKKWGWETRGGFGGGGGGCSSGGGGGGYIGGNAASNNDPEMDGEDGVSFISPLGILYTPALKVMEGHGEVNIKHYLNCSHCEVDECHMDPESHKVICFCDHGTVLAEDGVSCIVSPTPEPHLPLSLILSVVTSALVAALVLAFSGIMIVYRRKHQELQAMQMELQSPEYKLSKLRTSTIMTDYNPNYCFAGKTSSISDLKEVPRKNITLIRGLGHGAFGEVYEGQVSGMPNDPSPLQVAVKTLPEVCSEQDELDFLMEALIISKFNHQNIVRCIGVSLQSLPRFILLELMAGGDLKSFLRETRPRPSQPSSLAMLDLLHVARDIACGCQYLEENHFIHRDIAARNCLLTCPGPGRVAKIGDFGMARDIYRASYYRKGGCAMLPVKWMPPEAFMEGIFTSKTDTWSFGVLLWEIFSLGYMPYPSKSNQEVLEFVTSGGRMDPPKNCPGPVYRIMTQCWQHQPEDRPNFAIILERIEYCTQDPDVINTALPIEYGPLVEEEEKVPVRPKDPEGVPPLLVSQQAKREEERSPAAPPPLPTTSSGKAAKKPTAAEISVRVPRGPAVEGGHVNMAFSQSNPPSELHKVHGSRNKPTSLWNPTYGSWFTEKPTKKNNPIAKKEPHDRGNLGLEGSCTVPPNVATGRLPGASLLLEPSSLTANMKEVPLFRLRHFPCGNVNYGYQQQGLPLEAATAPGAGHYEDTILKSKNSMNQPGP

Regarding `CN(c1ccccc1-c1ccc2cnc(Nc3ccc4nn(CCN5CCOCC5)cc4c3)nn12)S(C)(=O)=O` [Example 1343, N-Methyl-N-(2-{2-[2-(2-morpholin-4-yl-ethyl)-2H-indazol-5-ylamino]-pyrrolo[2,1-f][1,2,4]triazin-7-yl}-phenyl)-methanesulfonamide], the pIC50 at ALK (setting [1]) and at JAK2 (setting [2]) was > 7.00 each time.

Regarding `O=C(c1cccc(Nc2ncc3ccc(-c4cccc(Cl)c4)n3n2)c1)N1CCOCC1` [Example 329, {3-[7-(3-Chloro-phenyl)-pyrrolo[2,1-f][1,2,4]triazin-2-ylamino]-phenyl}-morpholin-4-yl-methanone], the pIC50 at ALK (ALK Kinase Inhibition) was 6.00 to 7.00; on JAK2 (JAK2 Kinase Inhibition), > 7.00.

For the compound `COc1cccc(Nc2ncc3cc4ccccc4n3n2)c1` [Example 272, (3-Methoxy-phenyl)-[1,2,4]triazino[1,6-a]indol-2-yl-amine], the pIC50 was < 5.00 on ALK (ALK Kinase Inhibition) and > 7.00 at JAK2 (JAK2 Kinase Inhibition).

For the compound `c1cncc(-c2ccc3cnc(Nc4cnn(CCN5CCOCC5)c4)nn23)c1` [Example 1191, [1-(2-Morpholin-4-yl-ethyl)-1H-pyrazol-4-yl]-(7-pyridin-3-yl-pyrrolo[2,1-f][1,2,4]triazin-2-yl)-amine], the results for the pIC50 at ALK (setting [1]) and on JAK2 (setting [2]) were < 5.00 and > 7.00, respectively.

With `Cn1cnc2ccc(Nc3ncc4ccc(-c5ccc(S(C)(=O)=O)cc5)n4n3)cc21` [Example 1301, [7-(4-Methanesulfonyl-phenyl)-pyrrolo[2,1-f][1,2,4]triazin-2-yl]-(3-methyl-3H-benzimidazol-5-yl)-amine], the pIC50 on ALK (setting [1]) is 6.00 to 7.00; at JAK2 (setting [2]), > 7.00.

Consider `COc1cc(N2CCCC(N3CCN(C)CC3)C2)ccc1Nc1ncc2ccc(-c3ccccc3OC)n2n1` (stereo not shown) [Example 235, {2-Methoxy-4-[3-(4-methyl-piperazin-1-yl)-piperidin-1-yl]-phenyl}-[7-(2-methoxy-phenyl)-pyrrolo[2,1-f][1,2,4]triazin-2-yl]-amine], for which the pIC50 on ALK (ALK Kinase Inhibition) was > 7.00; at JAK2 (JAK2 Kinase Inhibition), 6.00 to 7.00.

With `COc1cc(OC2CCN(C)CC2)ccc1Nc1ncc2ccc(-c3ccccc3N(C)S(C)(=O)=O)n2n1` [Example 999, N-(2-{2-[2-Methoxy-4-(1-methyl-piperidin-4-yloxy)-phenylamino]-pyrrolo[2,1-f][1,2,4]triazin-7-yl}-phenyl)-N-methyl-methanesulfonamide], the pIC50 at ALK (setting [1]) is > 7.00; on JAK2 (setting [2]) it was 6.00 to 7.00.

As for “(S)-1-(4-{4-[7-(4-Chloro-2-methoxy-phenyl)-pyrrolo[2,1-f][1,2,4]triazin-2-ylamino]-3-methoxy-phenyl}-piperazin-1-yl)-propan-2-ol [Example 487]”, the results for the pIC50 at ALK (setting [1]) and at JAK2 (setting [2]) were > 7.00 and 6.00 to 7.00, respectively.

Regarding `CN1CCN(c2ccc(Nc3ncc4ccc(Nc5ccccc5)n4n3)cc2)CC1` [Example 24, N(2)-[4-(4-Methyl-piperazin-1-yl)-phenyl]-N(7)-phenyl-pyrrolo[2,1-f][1,2,4]triazine-2,7-diamine], the results for the pIC50 on ALK (ALK Kinase Inhibition) and on JAK2 (JAK2 Kinase Inhibition) were 5.00 to 6.00 and > 7.00, respectively.

For `CN1CCN(c2ccc(Nc3ncc4ccc(-c5ccccc5CNCCS(C)(=O)=O)n4n3)cc2)CC1` [Example 1199, (7-{2-[(2-M ethanesulfonyl-ethylamino)-methyl]-phenyl}-pyrrolo[2,1-f][1,2,4]triazin-2-yl)-[4-(4-methyl-piperazin-1-yl)-phenyl]-amine], the pIC50 at ALK (setting [1]) is 5.00 to 6.00; on JAK2 (setting [2]), > 7.00.

`CCN1C(=O)CCC(C)(C)c2ccc(Nc3ncc4ccc(-c5cnn(C)c5)n4n3)cc21` [Example 1379, 1-Ethyl-5,5-dimethyl-8-[7-(1-methyl-1H-pyrazol-4-yl)-pyrrolo[2,1-f][1,2,4]triazin-2-ylamino]-1,3,4,5-tetrahydro-benzo[b]azepin-2-one]: the pIC50 on ALK (ALK Kinase Inhibition) is 6.00 to 7.00; on JAK2 (JAK2 Kinase Inhibition), > 7.00.

As to `COc1ccc(Cl)cc1-c1ccc2cnc(Nc3cccc(N4CCN(C[C@@H](C)O)CC4)c3)nn12` [Example 214, (R)-1-(4-{3-[7-(5-Chloro-2-methoxy-phenyl)-pyrrolo[2,1-f][1,2,4]triazin-2-ylamino]-phenyl}-piperazin-1-yl)-propan-2-ol], the pIC50 on ALK (ALK Kinase Inhibition) and at JAK2 (JAK2 Kinase Inhibition) was > 7.00 each time.

For the compound `CC(C)(C)NS(=O)(=O)c1cccc(-c2ccc3cnc(Nc4ccc5c(c4)N(S(C)(=O)=O)CCC5)nn23)c1` [Example 1060, N-tert-Butyl-3-[2-(1-methanesulfonyl-1,2,3,4-tetrahydro-quinolin-7-ylamino)-pyrrolo[2,1-f][1,2,4]triazin-7-yl]-benzenesulfonamide], the pIC50 is 5.00 to 6.00 at ALK (setting [1]) and > 7.00 on JAK2 (setting [2]).

For `CN(c1ccccc1-c1ccc2cnc(Nc3ccc4nc(CN5CCN(CCO)CC5)[nH]c4c3)nn12)S(C)(=O)=O` [Example 1521, N-[2-(2-{2-[4-(2-Hydroxy-ethyl)-piperazin-1-ylmethyl]-3H-benzimidazol-5-ylamino}-pyrrolo[2,1-f][1,2,4]triazin-7-yl)-phenyl]-N-methyl-methanesulfonamide], the values for the pIC50 at ALK (ALK Kinase Inhibition) and on JAK2 (JAK2 Kinase Inhibition) were 6.00 to 7.00 and > 7.00, respectively.

For `COc1cc(N2CCC(N3CCOCC3)CC2)ccc1Nc1ncc2ccc(-c3ccccc3NC(C)=O)n2n1` [Example 453, N-(2-{2-[2-Methoxy-4-(4-morpholin-4-yl-piperidin-1-yl)-phenylamino]-pyrrolo[2,1-f][1,2,4]triazin-7-yl}-phenyl)-acetamide], the pIC50 on ALK (ALK Kinase Inhibition) was 6.00 to 7.00; on JAK2 (JAK2 Kinase Inhibition), 5.00 to 6.00.

On to `COc1cc(N2CCC(N3CCN(C(=O)OCc4ccccc4)CC3)CC2)ccc1Nc1ncc2ccc(-c3ccccc3OC)n2n1` [Example 531, 4-(1-{3-Methoxy-4-[7-(2-methoxy-phenyl)-pyrrolo[2,1-f][1,2,4]triazin-2-ylamino]-phenyl}-piperidin-4-yl)-piperazine-1-carboxylic acid benzyl ester], for which the figures for the pIC50 at ALK (setting [1]) and on JAK2 (setting [2]) were > 7.00 and 6.00 to 7.00, respectively.

`COc1ccc(-c2ccc3cnc(Nc4ccc5c(c4)N(C)CCO5)nn23)cn1` [Example 644, [7-(6-Methoxy-pyridin-3-yl)-pyrrolo[2,1-f][1,2,4]triazin-2-yl]-(4-methyl-3,4-dihydro-2H-benzo[1,4]oxazin-6-yl)-amine]: the pIC50 was 5.00 to 6.00 on ALK (setting [1]) and > 7.00 at JAK2 (setting [2]).

For the compound `CS(=O)(=O)c1ccc(-c2ccc3cnc(Nc4ccc(N5CCOCC5)nc4)nn23)cc1` [Example 60, [7-(4-Methanesulfonyl-phenyl)-pyrrolo[2,1-f][1,2,4]triazin-2-yl]-(6-morpholin-4-yl-pyridin-3-yl)-amine], the pIC50 at ALK (ALK Kinase Inhibition) is 5.00 to 6.00; at JAK2 (JAK2 Kinase Inhibition), > 7.00.

On to `COc1cc2c(cc1Nc1ncc3ccc(-c4cccc5c4OCC5)n3n1)CCNCC2` [Example 709, [7-(2,3-Dihydro-benzofuran-7-yl)-pyrrolo[2,1-f][1,2,4]triazin-2-yl]-(8-methoxy-2,3,4,5-tetrahydro-1H-3-benzazepin-7-yl)-amine], for which the pIC50 on ALK (setting [1]) and at JAK2 (setting [2]) was > 7.00 each time.

Turning to `CC(C)(C)NS(=O)(=O)c1cccc(-c2ccc3cnc(Nc4ccc5c(c4)CCN(CC(N)=O)C5)nn23)c1` [Example 920, 2-{6-[7-(3-tert-Butylsulfamoyl-phenyl)-pyrrolo[2,1-f][1,2,4]triazin-2-ylamino]-3,4-dihydro-1H-isoquinolin-2-yl}-acetamide], the pIC50 on ALK (setting [1]) was 6.00 to 7.00; on JAK2 (setting [2]) it was > 7.00.

For `CS(=O)(=O)c1ccc(-c2ccc3cnc(Nc4ccc(C5CCN(CC(N)=O)CC5)cc4)nn23)cc1` [Example 1435, 2-(4-{4-[7-(4-Methanesulfonyl-phenyl)-pyrrolo[2,1-f][1,2,4]triazin-2-ylamino]-phenyl}-piperidin-1-yl)-acetamide], the pIC50 on ALK (ALK Kinase Inhibition) is 6.00 to 7.00; on JAK2 (JAK2 Kinase Inhibition), > 7.00.

On to `COc1cc(N2CCC(N3CCOCC3)CC2)ccc1Nc1ncc2ccc(-c3ccccc3N(CC3CC3)S(C)(=O)=O)n2n1` [Example 1461, N-Cyclopropylmethyl-N-(2-{2-[2-methoxy-4-(4-morpholin-4-yl-piperidin-1-yl)-phenylamino]-pyrrolo[2,1-f][1,2,4]triazin-7-yl}-phenyl)-methanesulfonamide], for which the pIC50 at ALK (ALK Kinase Inhibition) and on JAK2 (JAK2 Kinase Inhibition) was > 7.00 throughout.

For `c1cc2c(c(-c3ccc4cnc(Nc5cnc6c(N7CCNCC7)cccc6c5)nn34)c1)OCC2` [Example 710, [7-(2,3-Dihydro-benzofuran-7-yl)-pyrrolo[2,1-f][1,2,4]triazin-2-yl]-(8-piperazin-1-yl-quinolin-3-yl)-amine], the pIC50 at ALK (setting [1]) is < 5.00; on JAK2 (setting [2]), 5.00 to 6.00.

For the compound `COc1cc(N2CCC(N3CCOCC3)CC2)ccc1Nc1ncc2ccc(-c3ccccc3C(F)(F)F)n2n1` [Example 1464, [2-Methoxy-4-(4-morpholin-4-yl-piperidin-1-yl)-phenyl]-[7-(2-trifluoromethyl-phenyl)-pyrrolo[2,1-f][1,2,4]triazin-2-yl]-amine], the pIC50 is > 7.00 at ALK (ALK Kinase Inhibition) and 6.00 to 7.00 on JAK2 (JAK2 Kinase Inhibition).

As to `CCN(CC)C(=O)c1ccccc1-c1ccc2cnc(Nc3ccc(N4CCN(C)CC4)cc3)nn12` [Example 407, N,N-Diethyl-2-{2-[4-(4-methyl-piperazin-1-yl)-phenylamino]-pyrrolo[2,1-f][1,2,4]triazin-7-yl}-benzamide], the pIC50 on ALK (ALK Kinase Inhibition) was 6.00 to 7.00; at JAK2 (JAK2 Kinase Inhibition), > 7.00.

As for `COc1ccc(C2CCN(C)CC2)cc1Nc1ncc2ccc(-c3ccccc3N(C)S(C)(=O)=O)n2n1` [Example 774, N-(2-{2-[2-Methoxy-5-(1-methyl-piperidin-4-yl)-phenylamino]-pyrrolo-[2,1-f][1,2,4]triazin-7-yl}-phenyl)-N-methyl-methanesulfonamide], the pIC50 on ALK (setting [1]) is > 7.00; at JAK2 (setting [2]), 6.00 to 7.00.
